For 35 compounds, IC50 results are on record in patent publication US20240294542A1, “NLRP3 INFLAMMASOME INHIBITOR AND APPLICATION THEREOF” (TransThera Sciences (Nanjing), Inc., priority 2021, published 2024).

Each structure is given as a SMILES string.

This test deals with NLRP3 inflammasomes. In words: Inhibitory activity against NLRP3 inflammasome in THP-1 cells (LPS/nigericin stimulation, IL-1β ELISA). The class given is cell-based. Conditions: PMA-differentiated THP-1 cells; LPS 500 ng/mL 3 h, compound 1 h, nigericin 10 μg/mL 30 min; human IL-1β in supernatant by Elisa; read-out: IC50 (nM), inhibitory activities against NLRP3 in THP-1 cells. The protocol:
Test Samples: The compounds of the present invention prepared according to exemplary methods.
THP-1 is Immortalized Human Macrophage Cell Line
• Test instrument: microplate reader (made from PE)
• 1. […] Culture plate coating: 100 μL polylysine solution was added into a 96-well cell culture plate, and the reaction was carried out at 37° C. for 30 min. The solution was discarded, and PBS was washed twice for later use. • 3. […] The resulting mixture was uniformly mixed, and finally diluted by 1:1000 times, and the cells were placed in a carbon dioxide cell incubator at 37° C. and cultured for 1 h. • c. Nigericin was added to each well at a final concentration of 10 μg/mL, and the plate was placed in a carbon dioxide cell incubator at 37° C. and cultured for 30 min. • d. The media in wells were transferred to a new culture plate, and then the plate was centrifuged at 3000 rpm for 5 min. Then the supernatant was transferred to a new 96-well plate. • e. The collected cell culture supernatant samples were tested for the content of human IL-1β by using a commercial Elisa kit, as specified in the instructions.
A general note: ELISA stands for enzyme-linked immunosorbent assay.
For orientation: IC50 means the concentration needed to halve the response being measured. As for `Cc1ccc(-c2nnc(N[C@@H]3CCCN(C)C3)c3ccccc23)c(O)c1` [Compound 1, (R)-5-methyl-2-(4-((1-methylpiperidin-3-yl)amino)phthalazin-1-yl)phenol], the 50% inhibitory concentration (IC50) came to 1.8 nM.

Turning to `Cc1ccc(-c2nnc(N[C@@H]3CCCN(C)C3)c3c2CCCC3)c(O)c1` [Compound 1a, (R)-5-methyl-2-(4-((1-methylpiperidin-3-yl)amino)-5,6,7,8-tetrahydrophthalazin-1-yl)phenol], the IC50 stood at 7 nM.

Take `CN1CCC[C@@H](Nc2nnc(-c3ccc(C#N)cc3O)c3c2CCCC3)C1` [Compound 2a, (R)-3-hydroxy-4-(4-((1-methylpiperidin-3-yl)amino)-5,6,7,8-tetrahydrophthalazin-1-yl)benzonitrile]: the IC50 was 3 nM.

Turning to `Cc1ccc(-c2nnc(N[C@@H]3CCCN(C)C3)c3ccc(C)cc23)c(O)c1` [Compound 3, (R)-5-methyl-2-(7-methyl-4-((1-methylpiperidin-3-yl)amino)phthalazin-1-yl)phenol], the IC50 came out at 24 nM.

In the case of `Cc1ccc(-c2nnc(N[C@@H]3CCCN(C)C3)c3c2CCC3)c(O)c1` [Compound 3a, (R)-5-methyl-2-(4-((1-methylpiperidin-3-yl)amino)-6,7-dihydro-5H-cyclopenta[d]pyridazin-1-yl)phenol], the IC50 was determined as 4 nM.

With `Cc1ccc(-c2nnc(N[C@@H]3CCCN(C)C3)c3cc(C)ccc23)c(O)c1` [Compound 4, (R)-5-methyl-2-(6-methyl-4-((1-methylpiperidin-3-yl)amino)phthalazin-1-yl)phenol], the IC50 is 9 nM.

For the compound `Cc1ccc(-c2nnc(N[C@@H]3CCCN(C)C3)c3c(C)cccc23)c(O)c1` [Compound 5, (R)-5-methyl-2-(5-methyl-4-((1-methylpiperidin-3-yl)amino)phthalazin-1-yl)phenol], the IC50 came to 14 nM.

For the compound `CN1CCC[C@@H](Nc2nnc(-c3ccc(C4CC4)cc3O)c3c2CCCC3)C1` [Compound 5a, (R)-5-cyclopropyl-2-(4-((1-methylpiperidin-3-yl)amino)-5,6,7,8-tetrahydrophthalazin-1-yl)phenol], the IC50 stood at 5 nM.

As to `Cc1ccc(-c2nnc(N[C@@H]3CCCN(C)C3)c3cccc(F)c23)c(O)c1` [Compound 6, (R)-2-(8-fluoro-4-((1-methylpiperidin-3-yl)amino)phthalazin-1-yl)-5-methylphenol], the IC50 turned out to be 11 nM.

As for `Cc1ccc(-c2nnc(N[C@@H]3CCCN(C)C3)c3c2C2CCC3CC2)c(O)c1` [Compound 6a, (R)-5-methyl-2-(4-((1-methylpiperidin-3-yl)amino)-5,6,7,8-tetrahydro-5,8-ethanophthalazin-1-yl)phenol], the IC50 came to 1 nM.

Take `Cc1ccc(-c2nnc(N[C@@H]3CCCN(C)C3)c3cc(F)ccc23)c(O)c1` [Compound 8, (R)-2-(6-fluoro-4-((1-methylpiperidin-3-yl)amino)phthalazin-1-yl)-5-methylphenol]: the IC50 was 3 nM.

On to `Cc1ccc(-c2nnc(N[C@@H]3CCCN(C)C3)c3c(F)cccc23)c(O)c1` [Compound 9, (R)-2-(5-fluoro-4-((1-methylpiperidin-3-yl)amino)phthalazin-1-yl)-5-methylphenol], for which the IC50 is 3 nM.

For the compound `Cc1ccc(-c2nnc(N[C@@H]3CCCN(C)C3)c3cc(Cl)ccc23)c(O)c1` [Compound 12, (R)-2-(6-chloro-4-((1-methylpiperidin-3-yl)amino)phthalazin-1-yl)-5-methylphenol], the IC50 was determined as 4 nM.

Turning to `CN1CCC[C@@H](Nc2nnc(-c3ccc(C(F)F)cc3O)c3c2CCCC3)C1` [Compound 15a, (R)-5-(difluoromethyl)-2-(4-((1-methylpiperidin-3-yl)amino)-5,6,7,8-tetrahydrophthalazin-1-yl)phenol], the IC50 turned out to be 2 nM.

On to `COc1ccc2c(-c3ccc(C)cc3O)nnc(N[C@@H]3CCCN(C)C3)c2c1` [Compound 16, (R)-2-(6-methoxy-4-((1-methylpiperidin-3-yl)amino)phthalazin-1-yl)-5-methylphenol], for which the IC50 was found to be 7 nM.

Take `Cc1ccc(-c2nnc(N[C@@H]3CCCN(C)C3)c3cc(C#N)ccc23)c(O)c1` [Compound 20, (R)-1-(2-hydroxy-4-methylphenyl)-4-((1-methylpiperidin-3-yl)amino)phthalazine-6-carbonitrile]: the IC50 was 12 nM.

On to `N#Cc1ccc(-c2nnc(N[C@@H]3CCCN(C4CC4)C3)c3c2CCCC3)c(O)c1` [Compound 21a, (R)-4-(4-((1-cyclopropylpiperidin-3-yl)amino)-5,6,7,8-tetrahydrophthalazin-1-yl)-3-hydroxybenzonitrile], for which the IC50 came to 14 nM.

Regarding `COc1ccc(-c2nnc(N[C@@H]3CCCN(C)C3)c3c2CCCC3)c(O)c1` [Compound 23a, (R)-5-methoxy-2-(4-((1-methylpiperidin-3-yl)amino)-5,6,7,8-tetrahydrophthalazin-1-yl)phenol], the IC50 was determined as 6 nM.

On to `Cc1ccc(-c2nnc(N[C@@H]3CCCN(C)C3)c3cc(C(F)(F)F)ccc23)c(O)c1` [Compound 24, (R)-5-methyl-2-(4-((1-methylpiperidin-3-yl)amino)-6-(trifluoromethyl)phthalazin-1-yl)phenol], for which the IC50 was determined as 14 nM.

In the case of `CN1CCC[C@@H](Nc2nnc(-c3ccc(F)cc3O)c3c2CCCC3)C1` [Compound 24a, (R)-5-fluoro-2-(4-((1-methylpiperidin-3-yl)amino)-5,6,7,8-tetrahydrophthalazin-1-yl)phenol], the IC50 was 1 nM.

As for `Cc1ccc(-c2nnc(N[C@@H]3CCCN(C)C3)c3c2CCCCC3)c(O)c1` [Compound 26a, (R)-5-methyl-2-(4-((1-methylpiperidin-3-yl)amino)-6,7,8,9-tetrahydro-5H-cyclohepta[d]pyridazin-1-yl)phenol], the IC50 was found to be 4 nM.

In the case of `Cc1ccc(-c2nnc(N[C@@H]3CCCN(C)C3)c3c2CCCC3)c(O)c1F` [Compound 29a, (R)-2-fluoro-3-methyl-6-(4-((1-methylpiperidin-3-yl)amino)-5,6,7,8-tetrahydrophthalazin-1-yl)phenol], the IC50 turned out to be 1 nM.

Regarding `CN1CCC[C@@H](Nc2nnc(-c3ccc(F)c(F)c3O)c3c2CCCC3)C1` [Compound 31a, (R)-2,3-difluoro-6-(4-((1-methylpiperidin-3-yl)amino)-5,6,7,8-tetrahydrophthalazin-1-yl)phenol], the IC50 stood at 6 nM.

`Cc1ccc(-c2nnc(N[C@@H]3CCCN(C)C3)c3cc(C4CC4)ccc23)c(O)c1` [Compound 32, (R)-2-(6-cyclopropyl-4-((1-methylpiperidin-3-yl)amino)phthalazin-1-yl)-5-methylphenol]: the IC50 came out at 15 nM.

Consider `C[C@]1(O)C[C@@H](Nc2nnc(-c3ccc(C(F)(F)F)cc3O)c3c2CCCC3)C1` [Compound 32a, 2-(4-(((cis)-3-hydroxy-3-methylcyclobutyl)amino)-5,6,7,8-tetrahydrophthalazin-1-yl)-5-(trifluoromethyl)phenol], for which the IC50 is 7 nM.

Take `Cc1ccc(-c2nnc(N[C@@H]3CCCN(C)C3)c3c(Br)cccc23)c(O)c1` [Compound 34, (R)-2-(5-bromo-4-((1-methylpiperidin-3-yl)amino)phthalazin-1-yl)-5-methylphenol]: the IC50 amounted to 8 nM.

`Cc1ccc(-c2nnc(N[C@@H]3CCCN(C)C3)c3ncccc23)c(O)c1` [Compound 38, (R)-5-methyl-2-(8-((1-methylpiperidin-3-yl)amino)pyrido[2,3-d]pyridazin-5-yl)phenol]: the IC50 was 12 nM.

Consider `CN1CCC[C@@H](Nc2nnc(-c3ccc(C#N)cc3O)c3ccccc23)C1` [Compound 42, (R)-3-hydroxy-4-(4-((1-methylpiperidin-3-yl)amino)phthalazin-1-yl)benzonitrile], for which the IC50 came to 13 nM.

Take `Cc1ccc(-c2nnc(N[C@@H]3CCCN(C)C3)c3ccsc23)c(O)c1` [Compound 48, (R)-5-methyl-2-(4-((1-methylpiperidin-3-yl)amino)thieno[2,3-d]pyridazin-7-yl)phenol]: the IC50 turned out to be 2 nM.

On to `Cc1ccc(-c2nnc(N[C@@H]3CCCN(C)C3)c3ccncc23)c(O)c1` [Compound 49, (R)-5-methyl-2-(1-((1-methylpiperidin-3-yl)amino)pyrido[3,4-d]pyridazin-4-yl)phenol], for which the IC50 is 9 nM.

Take `Cc1ccc(-c2nnc(N[C@@H]3CCCN(C)C3)c3cnccc23)c(O)c1` [Compound 50, (R)-5-methyl-2-(4-((1-methylpiperidin-3-yl)amino)pyrido[3,4-d]pyridazin-1-yl)phenol]: the IC50 is 1 nM.

With `Cc1ccc2c(N[C@@H]3CCCN(C)C3)nnc(-c3ccc(C#N)cc3O)c2c1` [Compound 54, (R)-3-hydroxy-4-(7-methyl-4-((1-methylpiperidin-3-yl)amino)phthalazin-1-yl)benzonitrile], the IC50 amounted to 13 nM.

Regarding `Cc1ccc2c(-c3ccc(C#N)cc3O)nnc(N[C@@H]3CCCN(C)C3)c2c1` [Compound 55, (R)-3-hydroxy-4-(6-methyl-4-((1-methylpiperidin-3-yl)amino)phthalazin-1-yl)benzonitrile], the half-inhibitory concentration (IC50) was 4 nM.

In the case of `Cc1ccc(-c2nnc(N[C@@H]3CCCN(C)C3)c3cc(Br)ccc23)c(O)c1` [Compound 60, (R)-2-(6-bromo-4-((1-methylpiperidin-3-yl)amino)phthalazin-1-yl)-5-methylphenol], the IC50 stood at 13 nM.

For the compound `Cc1ccc(-c2nnc(N[C@@H]3CCCN(C)C3)c3sccc23)c(O)c1` [Compound 70, (R)-5-methyl-2-(7-((1-methylpiperidin-3-yl)amino)thieno[2,3-d]pyridazin-4-yl)phenol], the IC50 was 1 nM.
